The text below walks through data of patent US10787651B2, “Bradyrhizobium monooxygenase and use thereof for preparation of chiral sulfoxide” (JIANGSU AOSAIKANG PHARMACEUTICAL CO., LTD., priority 2018, dated 2020).

The test system of data set [1] is purified BoTEMO enzyme. As to the kind of experiment: Specific activity and ee of purified BoTEMO enzyme against a series of thioethers. Particulars: pH 9.0, 25° C. The data set is classed as biochemical, Bradyrhizobium oligotrophicum ECU1212. On the procedure: To 0.5 ml of potassium phosphate buffer (100 mmol/L, pH 9.0) was added purified BoTEMO enzyme (purified BoTEMO enzyme prepared in accordance with the method of Example 5). A thioether substrate dissolved in DMSO was added so that the final concentration of the thioether was 0.2-2 mmol/L and the final concentration of DMSO was 2% (v/v), and NADPH was added to a final concentration 0.2-2 mmol/L. At 25° C., the reaction was stirred at 1000 rpm under shaking. After completion of reaction, 0.6 ml of ethyl acetate was added for extraction. The extract was dried over anhydrous sodium sulfate. The organic clear liquid was taken up, and evaporated overnight to remove the solvent. Then, the residue was dissolved with 0.5 ml of isopropanol and analyzed for measuring the ee value of product.
The particular analysis conditions of conversion rate and ee value of product are as follows:
The analysis is carried out with a high performance liquid chromatograph (HPLC) under the conditions of: a chiral OD-H column ([…], 5 μm particle size, Daicel), a mobile phase of n-hexane:isopropanol=93:7, a flow rate of 1 ml/min, and UV detection at 254 nm; or an AS-H column (250 mm×4.6 mm, 5 μm particle size, Daicel), a mobile phase of n-hexane:isopropanol=55:45, a flow rate of 0.5 mL/min, and UV detection at 254 nm.
The activity of BoTEMO for catalyzing the asymmetrical oxidation of a series of thioether substrates to produce optically active sulfoxides was further determined by the method in accordance with Example.

Data set [2] is described as follows: Activity of recombinant BoTEMO by change of absorbance at 340 nm (NADPH). In kind it is biochemical. Here is the method:
The activity of BoTEMO and glucose dehydrogenase was determined by measuring the change of absorbance at 340 nm with a spectrophotometer.
(§1) The activity of BoTEMO was determined as follows. To 1 ml of the reaction system (100 mmol/L Tris-HCl buffer, pH 9.0) was added 1 mmol/L thioanisole and 0.2 mmol/L NADPH. The mixture was kept at 30° C. for 2 min, and then an appropriate amount of crude enzyme solution prepared in accordance with Example 5 was added. The mixture was rapidly mixed to uniform, and measured for the change of absorbance at 340 nm. The specific activity of the crude enzyme solution was determined as 101 mU/ml.
(§2) The enzyme activity was calculated in accordance with the equation of: Enzyme Activity (U)=EW×V×10^3/(6220×1).
(§3) In the equation, EW represents the change of absorbance at 340 nm in 1 min; V represents the volume of the reaction mixture (in ml); 6220 represents the molar extinction coefficient of NADPH (in L/(mol·cm)); and 1 represents the optical path distance (in cm). Each unit of BoTEMO is defined as the enzyme amount required to catalyze the oxidation of 1 μmol NADPH per minute under the foregoing conditions. Each unit of glucose dehydrogenase is defined as the enzyme amount required to catalyze the reduction of 1 μmol NADP^+ per minute under the foregoing conditions.

Data set [3] can be described thus: Enzyme activity of BoTEMO-M1 and BoTEMO-M2 powders (method of Example 6). The data set is classed as biochemical. Particulars: lyophilized crude enzyme powders; for enzyme activity relative to BoTEMO: times that of BoTEMO. On the procedure: as §1, §2, §3
Recombinant transformants were prepared from the foregoing two mutant genes of BoTEMO-M1 and BoTEMO-M2 in accordance with the method of Example 4. Resting cells and lyophilized crude enzyme powders were prepared in accordance with the method of Example 5. And further, the enzyme activities of BoTEMO-M1 and BoTEMO-M2 powders were measured in accordance with the method of measuring the enzyme activity of Example 6. The enzyme activities of BoTEMO-M1 and BoTEMO-M2 are 7.6 times that of BoTEMO (BoTEMO-M1) and 1.6 times (BoTEMO-M2), respectively. The activity against the lansoprazole thioether reaches 20 U/g (BoTEMO-M1) and 4.2 U/g (BoTEMO-M2).

On to `CSc1ccccc1` [compound 1], for which the “Specific Activity” value in data set [1] is on record as “+++ (“+++”: >100 U/g)”. As to `Cc1c(OCC(F)(F)F)ccnc1CSc1nc2ccccc2[nH]1` [compound 8], the “Specific Activity” value in data set [1] was “+ (“+”: <10 U/g)”. Consider `COc1ccnc(CSc2nc3cc(OC(F)F)ccc3[nH]2)c1OC` [compound 7], for which the “Specific Activity” value in data set [1] is on record as “+ (“+”: <10 U/g)”.

Regarding `COc1ccc2[nH]c(SCc3ncc(C)c(OC)c3C)nc2c1` [compound 2], in data set [1], the “Specific Activity” value is reported as “++ (“++”: 10 ~ 100 U/g)”. Take `COCCCOc1ccnc(CSc2nc3ccccc3[nH]2)c1C` [compound 6]: in data set [1], the “Specific Activity” value is on record as “+ (“+”: <10 U/g)”.

For the molecule `COc1ccnc(CSc2nc3cc(-n4cccc4)ccc3[nH]2)c1C` [compound 3], the “Specific Activity” value in data set [1] is listed as “++ (“++”: 10 ~ 100 U/g)”. Consider `COc1ccc2[nH]c(SC)nc2c1` [compound 5], for which the “Specific Activity” value in data set [1] is “+ (“+”: <10 U/g)”. Same read-out and setting: the result for `CSc1ccc(C)cc1` [compound 4] reads “+ (“+”: <10 U/g)”.

B1: BoTEMO: Bradyrhizobium oligotrophicum ECU1212 Thioether Monooxygenase, amino acid sequence SEQ ID No. 2 (protein)
chain: MSTEHVDVLIVGAGLSGIAAAYHLQHKCPGKRFALLEGRGALGGTWDLFRYPGIRSDSDMYTLGYSFKPWTDPKAIADGPQILKYVQDTATENGIDRHIRFNHRVRRASWSSADARWTVEAERQTAQGTTETVSMTCGFLFMCSGYYRYEKGYLPDFKGMADFKGRIVHPQAWPADLDYAGKRVVVIGSGATAVTLVPAMAKTAAHVTMLQRSPTYVVSRPAQDALANKLREHLPAGLAYHLIRWRNVLFGMYFFQLSRRKPQRVKQLILGGVRAALGPDYDVATHFTPRYNPWDQRLCLVPDGDLFRTIREQRASVVTAGIDTFTERGLRLSDGRELEAEIVVTATGLVLQVLGGSEVVVDGRTVDFAKTLNYKGMMYSDVPNMAATLGYTNFSWTLKCDLTCEYVCRLLNYMDRHGYRQCVPHNDDTTVTPLPSLSFSSGYVQRSIADLPKQGSKRPWRLYQNYALDIVSLRFGKVDDGVMRYS
modifications: Bradyrhizobium oligotrophicum ECU1212
Consider B1, for which the “specific activity of the crude enzyme solution” value in data set [2] (1 mmol/L thioanisole, 0.2 mmol/L NADPH, pH 9.0, 30° C.) was determined as 101 mU/ml. The “activity of lyophilized crude enzyme solution powders on thioanisole” value in data set [2] (lyophilized crude enzyme powders) amounted to 0.2 U/mg.

B2: BoTEMO-M1: BoTEMO mutant, Asp295Cys, Ser395Leu, Trp396Ala, SEQ ID No. 4 (protein)
chain: MSTEHVDVLIVGAGLSGIAAAYHLQHKCPGKRFALLEGRGALGGTWDLFRYPGIRSDSDMYTLGYSFKPWTDPKAIADGPQILKYVQDTATENGIDRHIRFNHRVRRASWSSADARWTVEAERQTAQGTTETVSMTCGFLFMCSGYYRYEKGYLPDFKGMADFKGRIVHPQAWPADLDYAGKRVVVIGSGATAVTLVPAMAKTAAHVTMLQRSPTYVVSRPAQDALANKLREHLPAGLAYHLIRWRNVLFGMYFFQLSRRKPQRVKQLILGGVRAALGPDYDVATHFTPRYNPWCQRLCLVPDGDLFRTIREQRASVVTAGIDTFTERGLRLSDGRELEAEIVVTATGLVLQVLGGSEVVVDGRTVDFAKTLNYKGMMYSDVPNMAATLGYTNFLATLKCDLTCEYVCRLLNYMDRHGYRQCVPHNDDTTVTPLPSLSFSSGYVQRSIADLPKQGSKRPWRLYQNYALDIVSLRFGKVDDGVMRYS
modifications: VARIANT
Take B2: in data set [3], the “activity against the lansoprazole thioether” value came to 20 U/g and the “enzyme activity relative to BoTEMO” value amounted to 7.6 times.

B3: BoTEMO-M2: BoTEMO mutant, Ser357Ile, Phe394Ala, SEQ ID No. 6 (protein)
chain: MSTEHVDVLIVGAGLSGIAAAYHLQHKCPGKRFALLEGRGALGGTWDLFRYPGIRSDSDMYTLGYSFKPWTDPKAIADGPQILKYVQDTATENGIDRHIRFNHRVRRASWSSADARWTVEAERQTAQGTTETVSMTCGFLFMCSGYYRYEKGYLPDFKGMADFKGRIVHPQAWPADLDYAGKRVVVIGSGATAVTLVPAMAKTAAHVTMLQRSPTYVVSRPAQDALANKLREHLPAGLAYHLIRWRNVLFGMYFFQLSRRKPQRVKQLILGGVRAALGPDYDVATHFTPRYNPWDQRLCLVPDGDLFRTIREQRASVVTAGIDTFTERGLRLSDGRELEAEIVVTATGLVLQVLGGIEVVVDGRTVDFAKTLNYKGMMYSDVPNMAATLGYTNASWTLKCDLTCEYVCRLLNYMDRHGYRQCVPHNDDTTVTPLPSLSFSSGYVQRSIADLPKQGSKRPWRLYQNYALDIVSLRFGKVDDGVMRYS
modifications: VARIANT
With B3, in data set [3], the “activity against the lansoprazole thioether” value is 4.2 U/g and the “enzyme activity relative to BoTEMO” value is listed as 1.6 times.
